Article PMC8225628, “Bispecific repurposed medicines targeting the viral and immunological arms of COVID-19” (Scientific Reports, 2021)
Read-outs that look alike come from different tables or passages of the source.

Key:
SARS-CoV-2 PL^pro = SARS-CoV-2 PL^pro (Severe acute respiratory syndrome coronavirus 2, UniProt P0DTD1); assay: biochemical; details: for inhibition at 10 µM: read-out: PL^pro % inhibition at 10 µM
SARS-CoV-2 M^pro = SARS-CoV-2 M^pro (Severe acute respiratory syndrome coronavirus 2, UniProt P0DTD1); assay: biochemical; details: for inhibition at 10 µM: read-out: M^pro % inhibition at 10 µM
HUH7 cells = details: 4 days
SARS-CoV-2 = assay: Antiviral assay, inhibition of SARS-CoV-2 cytopathic effect in HUH7_mCherry cells; details: HUH7 cells
M^pro = M^pro (Severe acute respiratory syndrome coronavirus 2, UniProt P0DTD1); assay: M^pro SPR assay; assay type: binding
PL^pro = tested on: PL^pro; design: method as in PMID 32726803; details: read-out: Biochemical IC50; cited from earlier work
[1] = design: method as in PMID 32726803; details: cited from earlier work
[2] = design: method as in PMID 32726803; details: cited from earlier work; remark: listed apart in the source
[3] = design: method as in PMID 32726803; details: read-out: FFU IC50; cited from earlier work
[4] = ReFRAME hits, >5e-6 = not potent enough to determine an IC50, read-out: PL^pro IC50
[5] = ReFRAME hits, >5e-6 = not potent enough to determine an IC50, read-out: M^pro IC50
[6] = SARS-CoV-2 PL^pro, range in brackets, read-out: IC50 (µM) (range)

O=C(O)c1cccc(C[C@@H]2COc3ccc(OCc4nc5cc(F)ccc5s4)cc3[C@@H]2O)c1 [(+)-CP-85958]
PL^pro % inhibition at 10 µM (SARS-CoV-2 PL^pro; ReFRAME hits, 10 µM): 17%
IC50 (SARS-CoV-2 PL^pro; [4]): > 5 µM
M^pro % inhibition at 10 µM (SARS-CoV-2 M^pro; ReFRAME hits): 70%
IC50 (SARS-CoV-2 M^pro; [5]): 2 µM

COc1ccc(-c2ccc(OCc3cc(C(=O)[N-]S(=O)(=O)c4ccccc4C)oc3C)cc2)nc1.[Na+] [BGC-20-1531]
PL^pro % inhibition at 10 µM (SARS-CoV-2 PL^pro; ReFRAME hits, 10 µM): 24%
IC50 (SARS-CoV-2 PL^pro; [4]): > 5 µM
M^pro % inhibition at 10 µM (SARS-CoV-2 M^pro; ReFRAME hits): 58%
IC50 (SARS-CoV-2 M^pro; [5]): > 5 µM

CC(C)(C)NC(=O)N[C@H](C(=O)N1C[C@H]2[C@@H]([C@H]1C(=O)NC(CC1CCC1)C(=O)C(N)=O)C2(C)C)C(C)(C)C (stereo partly shown) [Boceprevir, reference compound]
inhibition at 10 µM (SARS-CoV-2 PL^pro; ReFRAME hits, 10 µM): -2%
inhibition at 10 µM (SARS-CoV-2 M^pro; ReFRAME hits): 62%

O=C(NCc1ccccn1)C(=O)C(Cc1ccccc1)NC(=O)C1CCC(=O)N1Cc1ccccc1 (stereo not shown) [Compound 1]
Concentration up to which non-cytotoxic (HUH7 cells; HUH7 cells): up to 100 µM
Antiviral effect (SARS-CoV-2; at 100 µM): 75%

O=C(NC1CC1)C(=O)C(Cc1ccccc1)NC(=O)C1CCC(=O)N1Cc1ccccc1 (stereo not shown) [Compound 2, ABT-957, reference compound]
inhibition at 10 µM (SARS-CoV-2 PL^pro; ReFRAME hits, 10 µM): 17%
IC50 (SARS-CoV-2 PL^pro; read-out: PL^pro IC50): > 5 µM
IC50 (SARS-CoV-2 M^pro; [5]): > 5 µM
IC50 (SARS-CoV-2 M^pro; read-out: IC50 against M^pro): > 100 µM
inhibition at 10 µM (SARS-CoV-2 M^pro; ReFRAME hits): 73%

CCOC(=O)C[C@H](NC(=O)[C@H](C)NC(=O)[C@@H](NC(=O)OCc1ccccc1)C(C)C)C(=O)COC(=O)c1c(Cl)cccc1Cl [Compound 4, Ethyl (5S,8S,11S)-11-(2-((2,6-dichlorobenzoyl)oxy)acetyl)-5-isopropyl-8-methyl-3,6,9-trioxo-1-phenyl-2-oxa-4,7,10-triazatridecan-13-oate, reference compound]
inhibition at 10 µM (SARS-CoV-2 PL^pro; ReFRAME hits, 10 µM): 19%
IC50 (SARS-CoV-2 PL^pro; read-out: PL^pro IC50): > 5 µM
Binding to M^pro in SPR (in words) (M^pro): confirmed to bind
Binding to M^pro in SPR (in words) (M^pro; in the presence of slow off-rate inhibitor N3): no binding observed
Concentration up to which non-cytotoxic (HUH7 cells; human): ≤ 10 µM
Antiviral effect (SARS-CoV-2; at 10 µM, dose refreshed daily): 50%
IC50 (SARS-CoV-2 M^pro; 30 nM is the biochemical limit of the assay, read-out: IC50 against M^pro): 0.03 µM
inhibition at 10 µM (SARS-CoV-2 M^pro; ReFRAME hits): 95%

CCOC1OC(=O)CC1NC(=O)C1CCCN1C(=O)C(NC(=O)c1ccc(N)c(Cl)c1)C(C)(C)C (stereo not shown) [Compound 7, belnecasan, reference compound]
Inhibition of M^pro (in words) (SARS-CoV-2 M^pro): did not substantially inhibit

CCOc1cc2ncc(C#N)c(Nc3ccc(F)c(Cl)c3)c2cc1NC(=O)/C=C/CN(C)C [Compound 10, Pelitinib, reference compound]
IC50 (SARS-CoV-2 PL^pro; [6]): > 100 µM
Inhibition of M^pro (in words) (SARS-CoV-2 M^pro): not determined to display significant biochemical inhibition

CN(C)C/C=C/C(=O)Nc1cc2c(Nc3ccc(F)c(Cl)c3)ncnc2cc1O[C@H]1CCOC1 [Compound 11, Afatinib, reference compound]
IC50 (SARS-CoV-2 PL^pro; [6]): 12 µM

COc1cc2ncnc(Nc3ccc(F)c(Cl)c3)c2cc1NC(=O)/C=C/CN1CCCCC1 [Compound 12, Dacomitinib, reference compound]
IC50 (SARS-CoV-2 PL^pro; [6]): 4 µM

Cc1ccc(N)cc1C(=O)N[C@H](C)c1cccc2ccccc12 [GRL-0617]
Viral RNA detection potency [1]: > 50 µM
Cytopathic-effect potency [2]: 30 µM
IC50 [3]: > 100 µM

CCC[C@@H](NC(=O)N1C(=O)C(CC)(CC)[C@@H]1Oc1ccc(CC(=O)O)cc1)c1ccc(C)cc1 [L 680833]
PL^pro % inhibition at 10 µM (SARS-CoV-2 PL^pro; ReFRAME hits, 10 µM): 11%
IC50 (SARS-CoV-2 PL^pro; [4]): > 5 µM
M^pro % inhibition at 10 µM (SARS-CoV-2 M^pro; ReFRAME hits): 36%
IC50 (SARS-CoV-2 M^pro; [5]): > 5 µM

COc1ccc(/C=C/CCCCOc2ccc(C(=O)c3cccc(C(=O)O)c3)cc2CCC(=O)O)cc1 [LY 223982]
PL^pro % inhibition at 10 µM (SARS-CoV-2 PL^pro; ReFRAME hits, 10 µM): 22%
IC50 (SARS-CoV-2 PL^pro; [4]): > 5 µM
M^pro % inhibition at 10 µM (SARS-CoV-2 M^pro; ReFRAME hits): 43%
IC50 (SARS-CoV-2 M^pro; [5]): > 5 µM

Nc1nc(N)nc(Nc2ccc([As]3SC(C(=O)O)C(C(=O)O)S3)cc2)n1 (stereo not shown) [MELARSONYL]
PL^pro % inhibition at 10 µM (SARS-CoV-2 PL^pro): 11%
IC50 (SARS-CoV-2 PL^pro; read-out: PL^pro IC50): > 5 µM

Cl.Cl.Cl.Cl.N=C(N)NCCCCC(=O)Nc1cc(C(F)(F)F)cc(NC(=O)c2cc(C(=O)Nc3cc(C(F)(F)F)cc(NC(=O)CCCCNC(=N)N)c3O[C@@H]3CCNC3)ncn2)c1O[C@@H]1CCNC1 [PMX-30063]
PL^pro % inhibition at 10 µM (SARS-CoV-2 PL^pro; ReFRAME hits, 10 µM): 30%
IC50 (SARS-CoV-2 PL^pro; [4]): 2 µM
M^pro % inhibition at 10 µM (SARS-CoV-2 M^pro; ReFRAME hits): 11%
IC50 (SARS-CoV-2 M^pro; [5]): > 5 µM

CN1CCCN=C1/C=C/c1cccs1 [Pyrantel pamoate, reference compound]
IC50 (SARS-CoV-2 PL^pro): > 5 µM
